Source: patent US9890147B2 (BAYER PHARMA AKTIENGESELLSCHAFT, priority 2012, dated 2018)

Columns and labels:
MOLM-13 cells = experiment: Cell proliferation assay (alamarBlue), MOLM-13; assay type: cell-based; settings: Homo sapiens, 96 hours incubation, inhibition of cell proliferation
Method: In accordance with the invention, the capability of the substances to inhibit cell proliferation was determined Cell viability was determined using the alamarBlue® reagent (Invitrogen) in a Victor X3 Multilabel Reader (Perkin Elmer). The excitation wavelength was 530 nm and the emission wavelenth […].
The MOLM-13 cells (DSMZ, ACC 554) were sown at a concentration of 4000 cells/well in 100 μl growth medium (RPMI1640, 10% FCS) on 96-well microtitre plates.
After an overnight incubation at 37° C., the fluorescence values (CI values) were determined. The plates were then treated with various substance dilutions (1E-5 M, 3E-6 M, 1E-6M, 3E-7 M, 1E-7 M, 3E-8 M, 1E-8 M) and incubated at 37° C. for 72 (MV4-11-, LOX-IMVI cells), 96 (MOLM-13-, B16F10-, MDA-MB-431-, Caov-3 cells), 120 (MOLP-8-, KMS-12-PE cells) or 168 (LAPC-4 cells) hours. The fluorescence values (CO values) were then determined. For the data analysis, the CI values were subtracted from the CO values and the results were compared between cells treated with different dilutions of the substance or with buffer solution only. These were used to calculate the IC 50 values (substance concentration required for 50% inhibition of cell proliferation).

BRD4 (BD1) = target: T1, BRD4 (BD1) (Homo sapiens, UniProt O60885); experiment: Binding assay BRD4/acetylated peptide H4 (TR-FRET protein-protein interaction assay)
T1 construct: with relatively long constructs also being possible, preferably amino acids 44-168; made in house; host or cells: E. coli
Outline: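 His6-BRD4 BD1 (aa 67-152, E. coli), usually 10 nM, with biotinylated tetra-acetylated H4 peptide in HEPES pH 7.5 buffer; 11 compound concentrations 0.1 nM–20 μM in duplicate, 10 min preincubation, 1 h at 22 °C then ≥3 h at 4 °C. TR-FRET 665/620 ratio; IC50 by 4-parameter fit.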

IC50 (MOLM-13 cells) [µM]	IC50 (BRD4 (BD1)) [µM]	SMILES
0.63	0.05	CNC(=O)N1N=C(c2ccc(-c3cnccc3F)cc2)c2cc(OC)c(OC)cc2CC1C (racemic) [Example 123, (±)-1-[4-(4-fluoropyridin-3-yl)phenyl]-7,8-dimethoxy-N,4-dimethyl-4,5-dihydro-3H-2,3-benzodiazepine-3-carboxamide]
0.68	0.1	CNC(=O)N1N=C(c2cccc(N3CCC3)c2)c2cc(OC)c(OC)cc2CC1C (racemic) [Example 142, (±)-1-[3-(azetidin-1-yl)phenyl]-7,8-dimethoxy-N,4-dimethyl-4,5-dihydro-3H-2,3-benzodiazepine-3-carboxamide]
0.36	0.05	CNC(=O)N1N=C(c2ccc(N3CCN(C(=O)C(C)(C)O)CC3)cc2)c2cc(OC)c(OC)cc2CC1C (racemic) [Example 134, (±)-1-{4-[4-(2-hydroxy-2-methylpropanoyl)-piperazin-1-yl]phenyl}-7,8-dimethoxy-N,4-dimethyl-4,5-dihydro-3H-2,3-benzodiazepine-3-carboxamide]
1.03	0.52	CNC(=O)N1N=C(c2ccc(Cl)cc2)c2cc(N3CCS(=O)(=O)CC3)c(OC(F)(F)F)cc2CC1C (racemic) [Example 216, (±)-1-(4-chlorophenyl)-8-(1,1-dioxidothiomorpholin-4-yl)-N,4-dimethyl-7-(trifluoromethoxy)-4,5-dihydro-3H-2,3-benzodiazepine-3-carboxamide]
> 10	3.98	CNC(=O)N1N=C(c2ccc(N3CCC3)cc2)c2cc(OC)c(OC)cc2C[C@H]1C [Example 128.1, (4R)-1-[4-(azetidin-1-yl)phenyl]-7,8-dimethoxy-N,4-dimethyl-4,5-dihydro-3H-2,3-benzodiazepine-3-carboxamide]
0.47	0.06	CNC(=O)N1N=C(c2cccc(N3CCOCC3)c2)c2cc(OC)c(OC)cc2CC1C (racemic) [Example 140, (±)-7,8-dimethoxy-N,4-dimethyl-1-[3-(morpholin-4-yl)phenyl]-4,5-dihydro-3H-2,3-benzodiazepine-3-carboxamide]
1.42	0.04	CNC(=O)N1N=C(c2ccc(-c3cccc(C(=O)NCCN(C)C)c3)cc2)c2cc(OC)c(OC)cc2CC1C (racemic) [Example 113, (±)-1-(3′-{[2-(dimethylamino)ethyl]carbamoyl}biphenyl-4-yl)-7,8-dimethoxy-N,4-dimethyl-4,5-dihydro-3H-2,3-benzodiazepine-3-carboxamide]
0.49	0.06	CNC(=O)N1N=C(c2ccc(N3CCNC(=O)C3)cc2)c2cc(OC)c(OC)cc2CC1C (racemic) [Example 137, (±)-7,8-dimethoxy-N,4-dimethyl-1-[4-(3-oxopiperazin-1-yl)phenyl]-4,5-dihydro-3H-2,3-benzodiazepine-3-carboxamide]
0.38	0.14	CNC(=O)N1N=C(c2ccc(-c3cccc(F)c3)cc2)c2cc(OC)c(OC)cc2CC1C (racemic) [Example 89, (±)-1-(3′-fluorobiphenyl-4-yl)-7,8-dimethoxy-N,4-dimethyl-4,5-dihydro-3H-2,3-benzodiazepine-3-carboxamide]
0.56	0.33	CNC(=O)N1N=C(c2ccc(-c3c(C)noc3C)cc2)c2cc(OC(F)(F)F)c(Cl)cc2C[C@@H]1C [Example 156.1, (4S)-7-Chloro-1-[4-(3,5-dimethylisoxazol-4-yl)phenyl]-N,4-dimethyl-8-(trifluoromethoxy)-4,5-dihydro-3H-2,3-benzodiazepine-3-carboxamide]

The next lines start with the compound.

SMILES	IC50 (MOLM-13 cells) [µM]	IC50 (BRD4 (BD1)) [µM]
CNC(=O)N1N=C(c2ccc(-c3ccccc3)cc2)c2cc(OC)c(OC)cc2CC1C (racemic) [Example 60, (±)-1-(biphenyl-4-yl)-7,8-dimethoxy-N,4-dimethyl-4,5-dihydro-3H-2,3-benzodiazepine-3-carboxamide]	0.48	0.08
CNC(=O)N1N=C(c2ccc(N3CCOCC3)cc2)c2cc(OC)c(OC)cc2C[C@H]1C [Example 7.1, (4R)-7,8-dimethoxy-N,4-dimethyl-1-[4-(morpholin-4-yl)phenyl]-4,5-dihydro-3H-2,3-benzodiazepine-3-carboxamide]	> 10	3.19
CNC(=O)N1N=C(c2ccc(N3CCOC(C)C3=O)cc2)c2cc(OC)c(OC)cc2CC1C (racemic) [Example 42, (±)-7,8-dimethoxy-N,4-dimethyl-1-[4-(2-methyl-3-oxomorpholin-4-yl)phenyl]-4,5-dihydro-3H-2,3-benzodiazepine-3-carboxamide]	1.29	0.2
CNC(=O)N1N=C(c2ccc(-n3nc(C4CC4)cc3-c3ccccn3)cc2)c2cc(OC)ccc2C[C@@H]1C [Example 29, (4S)-1-{4-[3-cyclopropyl-5-(pyridin-2-yl)-1H-pyrazol-1-yl]phenyl}-8-methoxy-N,4-dimethyl-4,5-dihydro-3H-2,3-benzodiazepine-3-carboxamide]	0.36	0.13
CNC(=O)N1N=C(c2cccc(-c3ccnn3C)c2)c2cc(OC)c(OC)cc2CC1C (racemic) [Example 55, (±)-7,8-dimethoxy-N,4-dimethyl-1-[3-(1-methyl-1H-pyrazol-5-yl)phenyl]-4,5-dihydro-3H-2,3-benzodiazepine-3-carboxamide]	0.9	0.12
CNC(=O)N1N=C(c2cccc(-c3c(C)nn(C)c3C)c2)c2cc(OC)c(OC)cc2CC1C (racemic) [Example 53, (±)-7,8-dimethoxy-N,4-dimethyl-1-[3-(1,3,5-trimethyl-1H-pyrazol-4-yl)phenyl]-4,5-dihydro-3H-2,3-benzodiazepine-3-carboxamide]	0.35	0.04
CNC(=O)N1N=C(c2ccc(-c3ccc(OC)nc3)cc2)c2cc(OC)c(OC)cc2CC1C (racemic) [Example 66, (±)-7,8-dimethoxy-1-[4-(6-methoxypyridin-3-yl)phenyl]-N,4-dimethyl-4,5-dihydro-3H-2,3-benzodiazepine-3-carboxamide]	0.63	0.07
CNC(=O)N1N=C(c2ccc(-c3ccc(C)cc3)cc2)c2cc(OC)c(OC)cc2CC1C (racemic) [Example 64, (±)-7,8-dimethoxy-N,4-dimethyl-1-(4′-methylbiphenyl-4-yl)-4,5-dihydro-3H-2,3-benzodiazepine-3-carboxamide]	0.88	0.11
CNC(=O)N1N=C(c2ccc(-c3cccc(S(C)(=O)=O)c3)cc2)c2cc(OC)c(OC)cc2CC1C (racemic) [Example 73, (±)-7,8-dimcthoxy-N,4-dimethyl-1-[3′-(methylsulphonyl)biphenyl-4-yl]-4,5-dihydro-3H-2,3-benzodiazepine-3-carboxamide]	0.3	0.03
CNC(=O)N1N=C(c2ccc(-c3ccc(Cl)cc3)cc2)c2cc(OC)c(OC)cc2CC1C (racemic) [Example 63, (±)-1-(4′-chlorobiphenyl-4-yl)-7,8-dimethoxy-N,4-dimethyl-4,5-dihydro-3H-2,3-benzodiazepine-3-carboxamide]	0.77	0.17
CNC(=O)N1N=C(c2ccc(-c3ccc(OC)cc3)cc2)c2cc(OC)c(OC)cc2CC1C (racemic) [Example 65, (±)-7,8-dimethoxy-1-(4′-methoxybiphenyl-4-yl)-N,4-dimethyl-4,5-dihydro-3H-2,3-benzodiazepine-3-carboxamide]	0.63	0.1
